Results: article PMC7830597, “Derivatives of Tenuazonic Acid as Potential New Multi-Target Anti-Alzheimer’s Disease Agents” (Biomolecules, 2021)
Entries after “also recorded” stand apart in the source; their conditions may differ. Like-named read-outs stand apart in the source and are kept apart here.

Key:
[1] = set-up: method as in PMID 30158491; details: DPPH assay; cited from earlier work
[2] = set-up: method as in literature; details: value reported in the literature; ref literature; cited from earlier work
[3] = target: AChE of electroforus electricus (electric eel) (Electrophorus electricus, UniProt O42275); test: biochemical; details: mean of three independent experiments ± SEM
Method: All new racemic compounds were tested as acetylcholinesterase inhibitors via an in vitro assay, following a modification of Ellman’s method in three independent experiments, using tacrine as a reference compound. […] Enzyme inhibition assays were performed using an adaptation of Ellman’s method. The readings were made in a spectrophotometer Perkin-Elmer Lambda 35 UV-Vis. Enzyme activity is measured by following the increase in yellow color produced from thiocholine when it reacts with dithiobisnitrobenzoate ion (DTNB). DTNB solution was obtained dissolving the reagent in HEPES buffer with salts, namely NaCl (50 mM) and MgCl2 (20 mM), obtaining a 3 mM solution. The enzyme AChE of electroforus electricus (electric eel) stock (500 U) was dissolved in TRIS 50 mM, pH 8.0, being posteriorly diluted to assay concentrations (5 U), obtaining an aliquot of 1 mL. The enzyme substrate used was acetylthiocholine iodide (AThCh, 16 mM), which was prepared with deionized water. The compounds tested were diluted in MeOH or DMSO (1 mg/mL, 2–7 × 10^−3 M), with further dilution, and five different concentrations were used for each compound, obtaining different percentages of AChE inhibition. The assay consists in the addition of HEPES (50 mM, pH = 8), inhibitor, AChE and MeOH in a 1 mL cuvette. The mixture was left to incubate for 15 min and, after that, AThCh and DTNB were added. The enzymatic reaction was followed through the measurements of absorbencies at 405 nm (Perkin Elmer Lambda 35 spectrophotometer equipped with a temperature programmer PTP 1þ1 Peltier System, using thermostated (T = 25.0 ± 0.1 °C) 1 cm path length cells) during 5 min. A blank solution containing all the components except the enzyme, that was substituted for equal volume of HEPES, was used. A control reaction was used using MeOH instead of the new compounds and was considered the reaction corresponding to 100% enzymatic activity. Each assay was performed in quintupled.

Aβ1-42 [4] = target: T1, Aβ1-42 (Homo sapiens, UniProt P05067); test: biochemical; details: for inhibition at 40 µM: read-out: Inhib. Aβ Aggreg. Self-Induced; for Inhib. Aβ Aggreg. Self-Induced: 40 µM
T1 construct: Amyloid β peptide (Aβ1-42) was purchased from GeneCust as a lyophilised powder; purchased GeneCust
Method: The anti-amyloidogenic activity of all the compounds was also evaluated in vitro, in the absence and in presence of Cu(II), by measuring the fluorescence emission of Thioflavin T (ThT).
The spectrofluorimetric method, based on the fluorescence emission of thioflavin T (ThT), was used to study the Aβ1-42 aggregation inhibition. Firstly, Aβ1-42 was dissolved in HFIP (1,1,1,3,3,3-Hexafluoro-2-propanol) and kept overnight at room temperature in order to obtain a dry film. […] The ligand solutions were prepared with MeOH (1mg/mL) and further with phosphate buffer. […] As a control, a solution of 30 μL of phosphate buffer and 30 μL of Aβ1-42 was used to observe the aggregation without any inhibition, while the ligand assay solutions were composed of 20 μL of phosphate buffer, 30 μL of Aβ1-42 and 10 μL of ligand. The Cu-induced aggregation studies were similarly conducted, adding 10 μL of CuCl2 to induce the fibril aggregation. Each experiment was composed of an assay and a blank sample, where the blank sample lacks Aβ1-42, to monitor the effect of the compounds on the fluorescence emission. The samples were left to incubate in a CERTOMAT WR water bath for 24 h at 37 °C with shaking. After 24 h, a Glycine-NaOH buffer (pH = 8.5) containing ThT were added to each sample in a microplate. The fluorescence signal was monitored at 446 nm (λexc) and 486 nm (λem) with a Varian Cary Eclipse fluorimeter. Amyloid β peptide (Aβ1-42) was purchased from GeneCust as a lyophilised powder and stored at −20 °C [12, 13, 14].

Aβ1-42 [5] = target: T1, Aβ1-42; set-up: method as in PMID 30158491; details: Cinhibitor = 100 µM; cited from earlier work
Aβ1-42 [6] = target: T1, Aβ1-42; test: Inhibition of Cu2+-induced Aβ1-42 aggregation, thioflavin T fluorescence; assay type: biochemical; details: inhibitor 40 µM, copper 40 µM
Method: The anti-amyloidogenic activity of all the compounds was also evaluated in vitro, in the absence and in presence of Cu(II), by measuring the fluorescence emission of Thioflavin T (ThT). […] The Aβ self-aggregation inhibitory activity shown by all compounds is higher than that of parent compound TA, with the exception of compound 2 (probably due to solubility issues at the experimental conditions of the assays). The fact that the reference value previously reported by us for TA (50 ± 8%) was obtained for quite different conditions, including a much higher inhibitor concentration (100 μM instead of 40 μM) is noteworthy. […] This may be due to different electronic contributions between the ketone and the ester functions. Therefore, the ester derivatives seem to be better chelators compared to TA.
The spectrofluorimetric method, based on the fluorescence emission of thioflavin T (ThT), was used to study the Aβ1-42 aggregation inhibition. Firstly, Aβ1-42 was dissolved in HFIP (1,1,1,3,3,3-Hexafluoro-2-propanol) and kept overnight at room temperature in order to obtain a dry film. Then, the film was re-dissolved in CH3CN-Na2CO3 (300μM)/NaOH (250μM) (48.3/48.3/3.4 mL v/v/v) and then phosphate buffer (pH = 8) was added. The ligand solutions were prepared with MeOH (1mg/mL) and further with phosphate buffer. For the inhibition studies of copper-induced Aβ aggregation, a solution of CuCl2 240 μM was used. As a control, a solution of 30 μL of phosphate buffer and 30 μL of Aβ1-42 was used to observe the aggregation without any inhibition, while the ligand assay solutions were composed of 20 μL of phosphate buffer, 30 μL of Aβ1-42 and 10 μL of ligand. The Cu-induced aggregation studies were similarly conducted, adding 10 μL of CuCl2 to induce the fibril aggregation. Each experiment was composed of an assay and a blank sample, where the blank sample lacks Aβ1-42, to monitor the effect of the compounds on the fluorescence emission. The samples were left to incubate in a CERTOMAT WR water bath for 24 h at 37 °C with shaking. After 24 h, a Glycine-NaOH buffer (pH = 8.5) containing ThT were added to each sample in a microplate. The fluorescence signal was monitored at 446 nm (λexc) and 486 nm (λem) with a Varian Cary Eclipse fluorimeter. Amyloid β peptide (Aβ1-42) was purchased from GeneCust as a lyophilised powder and stored at −20 °C [12, 13, 14].

[7] = Radical scavenging activity, DPPH method; details: DPPH assay; mean ± SEM of 3 independent experiments
Method: Therefore, they were assayed for radical scavenging activity using the DPPH method.
The final volume of the assay was 3.5 mL, corrected with MeOH to obtain different concentrations of our compound in each assay. The control solution was composed of MeOH and DPPH [14]. After 30 min, at RT, protected from light, the absorbance was measured at 517 nm (Perkin Elmer Lambda 35 spectrophotometer equipped with a temperature programmer PTP 1þ1 Peltier System, using thermostated (T¼25.0 ± 0.1 °C) 1 cm path length cells), against a blank solution (MeOH). The assays were performed in triplicate, in which the EC50 was obtained through the graphical representation of the %AA vs. the inhibitor concentration.

[8] = tested on: SH-SY5Y human neuroblastoma cells; test: Neuroprotection against Aβ1-42-induced toxicity, MTT; assay type: cell-based; details: Aβ1-42 2.5 μM 24 h; 1 h pre-incubation; compounds 1, 2 100 µM; 4 10 µM; 5 20 µM
Method: (§1) SH-SY5Y human neuroblastoma cells (ATCC-CRL-2266) were seeded in DMEM/F12 (Dulbecco’s Modified Eagle Medium/Ham’s F-12 Nutrient Mixture; Thermo Fisher Scientific) with 10% heat inactivated fetal bovine serum, 50 U/mL penicillin and 50 U/mL streptomycin under a humidified atmosphere with 95% relative humidity at 37 °C at a 0.16 × 10^6 cells/mL density. Stock solutions from tested compounds (1, 2, 4 and 5) were prepared in DMSO at a 25 mM concentration and stored at −20 °C until needed. In order to select the highest non-toxic concentration, a dose-response screening was performed, where SH-SY5Y cells were exposed to the compounds for 25 h. The selected concentrations for each compound were: 75 µM final concentration for 1 and 2; 10 µM final concentration for 4 and 20 µM final concentration for 5. […] For the neuroprotection assays, the selected compounds were added to the cell media 1 hour prior to the incubation with Aβ1-42 or L-ascorbic acid/ferrous sulphate. Aβ1-42 or L-ascorbic acid/ferrous sulphate treatment was maintained for another 24 h. Aβ1-42 was prepared as 276.9 µM stock in sterile water and administrated in the medium at a 2.5 µM final concentration. Ferrous sulphate was freshly prepared as 0.36 M stock in water and added to the medium at 2.5 mM final concentration. L-ascorbic acid was freshly prepared as 80 mM stock in water and added to the medium at 5 mM final concentration. Aβ1-42 was purchased from Bachem (Torrance, CA, USA) and ferrous sulphate and L-ascorbic acid from Sigma Chemical Co (St. Louis, MO, USA).
(§2) Cell viability was measured by using the MTT (3-(4,5-dimethylthiazol-2-yl)-2,5-diphenyl tetrazolium bromide) reduction assay. This test is based on the presence of succinate dehydrogenase enzyme in viable cells, that allows them to metabolize MTT into a formazan. After treatment, the medium was removed, and cells were washed with 1x PBS one time to remove dead cells. 200 µL of MTT solution (0.5 mg/mL) was added to each well and incubated for 2 h protected from light. Formazan precipitates were then dissolved in DMSO and absorbance measured at 570 nm. The ability to reduce MTT was expressed as a percentage of untreated control cells.
Overnight cultures were treated with Aβ1-42 peptide (2.5 μM) for 24 h in the absence or in the presence of the compounds. When compounds were present, a pre-incubation of 1 h preceded the Aβ1-42 treatment. Cellular viability was determined by employing the MTT reduction assay. […] (compounds: 1, 2–100 µM; 4–10 µM; 5–20 µM).

[9] = tested on: SH-SY5Y human neuroblastoma cells; test: Dose-response cell viability screening, MTT reduction assay; assay type: cell-based; details: for highest non-toxic concentration (selected concentration): SH-SY5Y cells exposed for 25 h
Method: as §1, §2
Figure 10 Dose-response screening of compounds 1, 2, 4 and 5 on SH-SY5Y neuronal cell line. Overnight cultures were treated with a range of concentrations from 10 μM to 100 μM for 24 h and cellular viability was determined by employing the MTT reduction assay.

[10] = tested on: SH-SY5Y human neuroblastoma cells; test: Neuroprotection against ferrous sulfate/L-ascorbic acid insult, MTT; assay type: cell-based; details: Fe/Asc 24 h; 1 h pre-incubation; compound 5 20 µM
Method: SH-SY5Y human neuroblastoma cells (ATCC-CRL-2266) were seeded in DMEM/F12 (Dulbecco’s Modified Eagle Medium/Ham’s F-12 Nutrient Mixture; Thermo Fisher Scientific) with 10% heat inactivated fetal bovine serum, 50 U/mL penicillin and 50 U/mL streptomycin under a humidified atmosphere with 95% relative humidity at 37 °C at a 0.16 × 10^6 cells/mL density. Stock solutions from tested compounds (1, 2, 4 and 5) were prepared in DMSO at a 25 mM concentration and stored at −20 °C until needed. In order to select the highest non-toxic concentration, a dose-response screening was performed, where SH-SY5Y cells were exposed to the compounds for 25 h. The selected concentrations for each compound were: 75 µM final concentration for 1 and 2; 10 µM final concentration for 4 and 20 µM final concentration for 5. […]
Cell viability was measured by using the MTT (3-(4,5-dimethylthiazol-2-yl)-2,5-diphenyl tetrazolium bromide) reduction assay. […] Formazan precipitates were then dissolved in DMSO and absorbance measured at 570 nm. The ability to reduce MTT was expressed as a percentage of untreated control cells.
Figure 12 Neuroprotective effect of compounds after Ferrous Sulfate (Fe)/L-Ascorbic Acid (AscH(-)) insult. […] Cellular viability was determined by employing the MTT reduction assay. […]

[11] = Aβ1-42, inhibitor 40 µM, SEM < 10%
[12] = AChE from electric eel, read-out: eeAChEi IC50

Chain of AChE of electroforus electricus (electric eel) (O42275 24-633): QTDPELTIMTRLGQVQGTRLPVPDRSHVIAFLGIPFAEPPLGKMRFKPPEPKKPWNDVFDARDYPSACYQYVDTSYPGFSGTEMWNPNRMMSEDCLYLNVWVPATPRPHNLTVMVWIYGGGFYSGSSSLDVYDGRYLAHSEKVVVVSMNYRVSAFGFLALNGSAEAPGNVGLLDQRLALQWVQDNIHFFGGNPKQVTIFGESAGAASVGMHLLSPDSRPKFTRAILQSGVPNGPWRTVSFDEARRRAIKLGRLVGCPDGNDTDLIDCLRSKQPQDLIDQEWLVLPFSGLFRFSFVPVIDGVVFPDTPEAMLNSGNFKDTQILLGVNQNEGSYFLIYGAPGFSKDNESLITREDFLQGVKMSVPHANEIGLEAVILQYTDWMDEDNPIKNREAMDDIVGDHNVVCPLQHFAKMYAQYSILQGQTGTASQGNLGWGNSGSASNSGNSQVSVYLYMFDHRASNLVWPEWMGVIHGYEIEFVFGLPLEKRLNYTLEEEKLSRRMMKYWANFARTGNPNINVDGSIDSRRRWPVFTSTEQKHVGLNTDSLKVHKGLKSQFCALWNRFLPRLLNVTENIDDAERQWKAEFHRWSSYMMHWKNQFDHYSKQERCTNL
T1 sequence (P05067 672-713 limits assumed): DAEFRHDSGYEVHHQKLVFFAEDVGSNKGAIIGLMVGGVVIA

CC[C@H](C)[C@@H]1NC(=O)C(C(C)=O)=C1O (stereo in doubt) [Tenuazonic acid]
Antioxidant Activity EC50 [1]: - 2.6 ± 0.2 [19] µmol/µmol of DPPH | log K (protonation constant) [2]: 3.523 | IC50 ([3]; eeAChEi IC50, AChE from electric eel): 65 ± 4 µM | inhibition at 40 µM (Aβ1-42 [4]; [11]): 25.2% | Inhib. Aβ Aggreg. Self-Induced (Aβ1-42 [5]): 50 ± 8% | Inhib. Aβ Aggreg. Cu2+-Induced (Aβ1-42 [6]): did not demonstrate a significant difference of effect

Nc1c2c(nc3ccccc13)CCCC2 [Tacrine, reference compound]
inhibition at 40 µM (Aβ1-42 [4]): 31.2%

O=C1C=C(NCCN2CCN(Cc3ccccc3)CC2)C(Cc2ccccc2)N1 (stereo not shown) [Compound 4, 5-Benzyl-4-((2-(4-benzylpiperazin-1-yl)ethyl)amino)-1,5-di-hydro-2H-pyrrol-2-one]
Antioxidant Activity EC50 [7]: >30 µmol/µmol of DPPH | protection against Aβ1-42-induced toxicity [8]: do not confer protection | IC50 [3, 12]: 16 ± 2 µM | Inhib. Aβ Aggreg. Self-Induced (Aβ1-42 [4]; [11]): 72.0% | inhibition at 40 µM (Aβ1-42 [4]; [11]): 72 to 78.4% | highest non-toxic concentration (selected concentration) [9]: 10 µM

CC(C)C1NC(=O)C=C1NCCN1CCN(Cc2ccccc2)CC1 (stereo not shown) [Compound 5, 4-((2-(4-Benzylpiperazin-1-yl)ethyl)amino)-5-isopropyl-1,5-dihydro-2H-pyrrol-2-one]
Antioxidant Activity EC50 [7]: >30 µmol/µmol of DPPH | protection against Aβ1-42-induced toxicity [8]: do not confer protection; also recorded: not able to directly protect SH-SY5Y cells from Aβ1-42-induced cell toxicity | neuroprotection against Fe/Asc challenge [10]: conferred neuroprotection against the Fe/Asc challenge | IC50 [3, 12]: 24 ± 3 µM | Inhib. Aβ Aggreg. Self-Induced (Aβ1-42 [4]; [11]): 78.4% | inhibition at 40 µM (Aβ1-42 [4]; [11]): 72 to 78.4% | cytotoxicity on SH-SY5Y cell line ([9]; 10 μM to 100 μM, 24 h, at the active concentrations): non-cytotoxic; also recorded: do not show (except for compound 4) cytotoxicity | highest non-toxic concentration (selected concentration) [9]: 20 µM

CCOC(=O)C1=C(O)C(C)NC1=O (stereo not shown) [Compound 3, Ethyl 4-hydroxy-5-methyl-2-oxo-2,5-dihydro-1H-pyrrole-3-carboxylate]
Antioxidant Activity EC50 [7]: >30 µmol/µmol of DPPH | IC50 [3, 12]: 44 ± 4 µM | inhibition at 40 µM (Aβ1-42 [4]; [11]): 57.4% | inhibition at 40 µM (Aβ1-42 [6]; read-out: Inhib. Aβ Aggreg. Cu2+-Induced): 63.8%
